Read-outs that look alike come from different tables or passages of the source.
Key:
[1] = test system: Staphylococcus aureus, methicillin susceptible; assay: Standard microdilution susceptibility test, clinical isolates; assay type: cell-based; details: Staphylococcus aureus, 10 clinical isolates
[2] = test system: Streptococcus viridans sp.; assay: as above; assay type: cell-based; details: Streptococcus viridans, 20 clinical isolates
[3] = test system: Staphylococcus aureus 7503; details: cited from earlier work
[4] = test system: Streptococcus pneumoniae, penicillin resistant; assay: Standard microdilution susceptibility test, clinical isolates; assay type: cell-based; details: Streptococcus pneumoniae, 10 clinical isolates
Propionibacterium acnes [5] = details: by Bryskier; cited from earlier work
Propionibacterium acnes [6] = details: cited from earlier work
[7] = test system: Coagulase-negative Staphylococus sp., methicillin resistant; assay: Standard microdilution susceptibility test, clinical isolates; assay type: cell-based; details: 10 clinical isolates
[8] = test system: Staphylococcus aureus, methicillin resistant; assay: as above; assay type: cell-based; details: Staphylococcus aureus, 10 clinical isolates
[9] = test system: Bacillus subtilis ATCC 6633; details: cited from earlier work
[10] = test system: Staphylococcus hominis 7835; details: cited from earlier work
[11] = test system: Enterobacter cloacae B 520; details: cited from earlier work
Staphylococcus capitis = details: cited from earlier work
[12] = test system: Staphylococcus aureus ATCC 25923; details: cited from earlier work
[13] = test system: Staphylococcus saprophyticus 8454; details: cited from earlier work
Streptococcus mitis = details: by Bryskier; cited from earlier work
Diphteroides 8264 = details: cited from earlier work
S. aureus ATCC 25923 = details: by Bryskier; cited from earlier work
Escherichia coli = details: by Bryskier; cited from earlier work
Escherichia coli B 1218 = details: cited from earlier work
S. aureus = details: by Bryskier; cited from earlier work
Micrococcus spp. = details: cited from earlier work
[14] = test system: Streptococcus simulans 7866; details: cited from earlier work
Coryneform(s) = details: by Bryskier; cited from earlier work
[15] = test system: Serotype β Streptococcus 8252; details: cited from earlier work
[16] = test system: Streptococcus pneumoniae, penicillin susceptible; assay: Standard microdilution susceptibility test, clinical isolates; assay type: cell-based; details: Streptococcus pneumoniae, 10 clinical isolates
Micrococcus = details: by Bryskier; cited from earlier work
[17] = test system: Enterococcus sp., vancomycin susceptible; assay: Standard microdilution susceptibility test, clinical isolates; assay type: cell-based; details: Enterococcus, 20 clinical isolates
B. subtilis ATCC 6633 = details: by Bryskier; cited from earlier work
[18] = test system: Coagulase-negative Staphylococus sp., methicillin susceptible; assay: Standard microdilution susceptibility test, clinical isolates; assay type: cell-based; details: 10 clinical isolates
Streptococcus mitis 5728 = details: cited from earlier work
S. pyogenes = details: by Bryskier; cited from earlier work
[19] = test system: Staphylococcus epidermidis; details: by Bryskier; cited from earlier work
[20] = test system: Staphylococcus epidermidis 7586; details: cited from earlier work
Enterobacter cloacae = details: by Bryskier; cited from earlier work

CC[C@H]1OC(=O)[C@H](C)[C@@H](O[C@H]2C[C@@](C)(OC)[C@@H](O)[C@H](C)O2)[C@H](C)[C@@H](O[C@@H]2O[C@H](C)C[C@H](N(C)C)[C@H]2O)[C@](C)(O)C[C@@H](C)C(=O)[C@H](C)[C@@H](O)[C@]1(C)O [Erythromycin]
0.25 µg/mL: MIC50 ([7]; read-out: MIC 50%)
>250 µg/mL: MIC [3] | MIC (Diphteroides 8264) | MIC (S. aureus) | MIC (Coryneform(s))
1 µg/mL: MIC50 ([2]; read-out: MIC 50%) | MIC50 ([17]; read-out: MIC 50%)
0.125 µg/mL: MIC50 ([1]; read-out: MIC 50%) | MIC50 ([18]; read-out: MIC 50%)
7.8 µg/mL: MIC [14]
250 µg/mL: MIC [10] | MIC [11] | MIC (Streptococcus mitis) | MIC (Streptococcus mitis 5728) | MIC (Enterobacter cloacae)
0.03 µg/mL: MIC50 ([16]; read-out: MIC 50%) | MIC90 ([16]; read-out: MIC 90%)
0.5 µg/mL: MIC [15] | MIC (S. pyogenes)
2 µg/mL: MIC50 ([4]; read-out: MIC 50%)
<0.5 µg/mL: MIC (Propionibacterium acnes [5]) | MIC (Propionibacterium acnes [6]) | MIC [9] | MIC (Staphylococcus capitis) | MIC (Micrococcus spp.) | MIC (Micrococcus) | MIC (B. subtilis ATCC 6633) | MIC [19] | MIC [20]
> 16 µg/mL: MIC90 ([1]; read-out: MIC 90%) | MIC90 ([2]; read-out: MIC 90%) | MIC90 ([4]; read-out: MIC 90%) | MIC90 ([7]; read-out: MIC 90%) | MIC50 ([8]; read-out: MIC 50%) | MIC90 ([8]; read-out: MIC 90%) | MIC90 ([17]; read-out: MIC 90%) | MIC90 ([18]; read-out: MIC 90%)
62.5 µg/mL: MIC (Escherichia coli) | MIC (Escherichia coli B 1218)
1.0 µg/mL: MIC [12] | MIC [13] | MIC (S. aureus ATCC 25923)

— patent US20140303105A1, “Primycin and components thereof for use in the treatment or prevention of infections caused by specific pathogens” (PANNONPHARMA GYÓGYSZERGYÁRTÓ ZRT., priority 2011, published 2014)
